Holding throughout (assay type): cell-based
Common to all, as to set-up: expressed in transfected cells; host or cells: HEK293 cells transfected with VIPR2 in pCDNA3.1 (as described)

Test [1] concerns the target T1, VIPR2 (Homo sapiens, UniProt P41587).
T1 sequence (P41587 24-438): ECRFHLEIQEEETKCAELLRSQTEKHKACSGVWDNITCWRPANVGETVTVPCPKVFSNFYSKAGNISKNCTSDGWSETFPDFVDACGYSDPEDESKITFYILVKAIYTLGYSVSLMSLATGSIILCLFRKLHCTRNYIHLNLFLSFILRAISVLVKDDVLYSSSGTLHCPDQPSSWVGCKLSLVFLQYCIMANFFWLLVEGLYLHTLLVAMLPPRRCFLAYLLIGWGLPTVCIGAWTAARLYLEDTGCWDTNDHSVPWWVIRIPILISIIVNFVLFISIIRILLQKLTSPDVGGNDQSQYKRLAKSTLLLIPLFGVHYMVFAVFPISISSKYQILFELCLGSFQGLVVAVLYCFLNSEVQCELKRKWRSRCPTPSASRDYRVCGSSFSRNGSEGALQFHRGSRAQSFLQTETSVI
The test can be described thus: Inhibition of VIP-induced cAMP elevation (% Activity cAMP). The settings on record: Batch 2. The procedure, abridged: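 HEK293 cells stably transfected with human VIPR2 were incubated with inhibitor and VIP for 30 min, then cAMP was detected by HTRF after at least 1 h at room temperature. The 665/620 nm ratio ×10,000 was calculated.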

The target of test [2] is T1, VIPR2. Briefly: % Activity: inhibition of VIP-induced cAMP elevation and β-arrestin recruitment (Table 2). The procedure, abridged:
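Recruitment of β-arrestin measured by β-gal fragment complementation luminescence in HEK293 cells co-expressing VIPR2-ProLink and β-arrestin2-EA after 2 h compound at 37° C. VIP-driven cAMP rise in stable hVIPR2 HEK293 cells measured by HTRF after 30 min with inhibitor and VIP.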
In general terms: Recruitment of arrestin is a read-out of receptor activation apart from second messengers.

The target of test [3] is T1, VIPR2. Briefly: Inhibition of VIP-induced β-arrestin recruitment (% Activity Arrestin). The settings on record: Batch 2. The method, boiled down:
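Read-out is β-gal fragment complementation (luminescence) between ProLink-hVIPR2 and EA-β-arrestin2 in transiently transfected HEK293 cells. Cells rested overnight, then exposed to inhibitor 2 h at 37 °C before detection reagent (5 min–1 h, room temperature); values are % activity against VIP-driven recruitment.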

For orientation: inhibition means the relative decrease from the control value, in per cent.

The structures appear in SMILES notation.

As for `NC(=O)[C@H](Cc1ccccc1)C[C@H](O)CNS(=O)(=O)c1ccc([N+](=O)[O-])cc1` [Compound B12A], on VIPR2 [1], the inhibition at 0.5 µM was found to be 6.7%, the inhibition at 1 µM turned out to be 3.6% and the inhibition at 5 µM stood at 2.1%. Also, the “% Activity” value on VIPR2 [2] is listed as −10.45%. In addition, at VIPR2 [3], the inhibition at 0.5 µM was -6.5%, the inhibition at 1 µM is -16.6% and the inhibition at 5 µM was -23%.

As for `NC(=O)[C@@H](Cc1ccccc1)C[C@H](O)CNS(=O)(=O)c1ccc([N+](=O)[O-])cc1` [Compound B12B], at VIPR2 [1], the inhibition at 0.5 µM was found to be 14.6%, the inhibition at 1 µM worked out at 12.6% and the inhibition at 5 µM stood at 9.7%. Further, the “% Activity” value on VIPR2 [2] worked out at 8.35%. Further, at VIPR2 [3], the inhibition at 0.5 µM came to 3.5%, the inhibition at 1 µM is -9.8% and the inhibition at 5 µM came to 7%.

In the case of `O=C(NC1CCCc2ccccc21)[C@H](Cc1ccccc1)C[C@H](O)CNS(=O)(=O)c1ccc([N+](=O)[O-])cc1` (stereo partly shown) [Compound B13A], on VIPR2 [1], the inhibition at 0.5 µM is 8.8%, the inhibition at 1 µM is 12.4% and the inhibition at 5 µM was 17.5%. Further, the “% Activity” value on VIPR2 [2] stood at 13.85%. On VIPR2 [3], the inhibition at 0.5 µM was 3.3%, the inhibition at 1 µM is 7.4% and the inhibition at 5 µM amounted to 10.2%.

With `O=C(NC1CCCc2ccccc21)[C@@H](Cc1ccccc1)C[C@H](O)CNS(=O)(=O)c1ccc([N+](=O)[O-])cc1` (stereo partly shown) [Compound B13B], on VIPR2 [1], the inhibition at 0.5 µM was 5.1%, the inhibition at 1 µM worked out at 6.6% and the inhibition at 5 µM amounted to 17.4%. On VIPR2 [2], the “% Activity” value turned out to be 9.0000%. Moreover, on VIPR2 [3], the inhibition at 0.5 µM was 4.8%, the inhibition at 1 µM was found to be 6.9% and the inhibition at 5 µM is 0.6%.

Consider `O=C(NCc1ccc(F)cc1F)[C@H](Cc1ccccc1)C[C@H](O)CNS(=O)(=O)c1ccc([N+](=O)[O-])cc1` [Compound B14A], for which, on VIPR2 [1], the inhibition at 0.5 µM worked out at 2.4%, the inhibition at 1 µM turned out to be 7.2% and the inhibition at 5 µM is 23.6%. At VIPR2 [2], the “% Activity” value is 27.2000%. Also, at VIPR2 [3], the inhibition at 0.5 µM was -19.5%, the inhibition at 1 µM is -13.3% and the inhibition at 5 µM was 30.8%.

On to `O=C(NCc1ccc(F)cc1F)[C@@H](Cc1ccccc1)C[C@H](O)CNS(=O)(=O)c1ccc([N+](=O)[O-])cc1` [Compound B14B], for which, on VIPR2 [1], the inhibition at 0.5 µM is -5.4%, the inhibition at 1 µM came out at 4.7% and the inhibition at 5 µM turned out to be 18.2%. For the same molecule, the “% Activity” value on VIPR2 [2] turned out to be 21.1000%. On VIPR2 [3], the inhibition at 0.5 µM came to 23.9%, the inhibition at 1 µM amounted to 20% and the inhibition at 5 µM is 24%.

For the molecule `CCN(CC)C(=O)[C@H](Cc1ccccc1)C[C@H](O)CNS(=O)(=O)c1ccc([N+](=O)[O-])cc1` [Compound B15A], at VIPR2 [1], the inhibition at 0.5 µM was -8.1%, the inhibition at 1 µM is -6.1% and the inhibition at 5 µM is -4.3%. For the same molecule, the “% Activity” value on VIPR2 [2] worked out at 0.7%. Moreover, on VIPR2 [3], the inhibition at 0.5 µM was -5.4%, the inhibition at 1 µM amounted to 7.9% and the inhibition at 5 µM was determined as 5.7%.

Turning to `CCN(CC)C(=O)[C@@H](Cc1ccccc1)C[C@H](O)CNS(=O)(=O)c1ccc([N+](=O)[O-])cc1` [Compound B15B], at VIPR2 [1], the inhibition at 0.5 µM turned out to be 0.5%, the inhibition at 1 µM is -8.4% and the inhibition at 5 µM was -10.5%. Further, the “% Activity” value on VIPR2 [2] is recorded as −6.6%. Besides, on VIPR2 [3], the inhibition at 0.5 µM was -3.6%, the inhibition at 1 µM was determined as 1.2% and the inhibition at 5 µM is -2.7%.

On to `CCNC(=O)[C@H](Cc1ccccc1)C[C@H](O)CNS(=O)(=O)c1ccc([N+](=O)[O-])cc1` [Compound B16A], for which, on VIPR2 [1], the inhibition at 0.5 µM is -7.1%, the inhibition at 1 µM was -0.4% and the inhibition at 5 µM is -6.2%. The “% Activity” value on VIPR2 [2] is −9.25%. Also, at VIPR2 [3], the inhibition at 0.5 µM turned out to be 15.2%, the inhibition at 1 µM amounted to 0.1% and the inhibition at 5 µM was -12.3%.

As for `CCNC(=O)[C@@H](Cc1ccccc1)C[C@H](O)CNS(=O)(=O)c1ccc([N+](=O)[O-])cc1` [Compound B16B], on VIPR2 [1], the inhibition at 0.5 µM was -13.2%, the inhibition at 1 µM was -0.9% and the inhibition at 5 µM is -22.2%. Moreover, the “% Activity” value at VIPR2 [2] was −14.9%. Also, at VIPR2 [3], the inhibition at 0.5 µM is -10%, the inhibition at 1 µM came to 6% and the inhibition at 5 µM was -7.6%.

With `O=C([C@H](Cc1ccccc1)C[C@H](O)CNS(=O)(=O)c1ccc([N+](=O)[O-])cc1)N1CCCCC1` [Compound B18A], at VIPR2 [1], the inhibition at 0.5 µM was -4.8%, the inhibition at 1 µM is -4.8% and the inhibition at 5 µM was determined as 0.5%. The “% Activity” value on VIPR2 [2] is −1.15%. For the same molecule, at VIPR2 [3], the inhibition at 0.5 µM was -10.2%, the inhibition at 1 µM was -11.5% and the inhibition at 5 µM was -2.8%.

As to `O=C([C@@H](Cc1ccccc1)C[C@H](O)CNS(=O)(=O)c1ccc([N+](=O)[O-])cc1)N1CCCCC1` [Compound B18B], at VIPR2 [1], the inhibition at 0.5 µM is 14.2%, the inhibition at 1 µM came out at 14.2% and the inhibition at 5 µM worked out at 9.4%. The “% Activity” value on VIPR2 [2] is reported as 12.15%. On VIPR2 [3], the inhibition at 0.5 µM turned out to be 0.5%, the inhibition at 1 µM was 9.2% and the inhibition at 5 µM stood at 14.9%.

As for `O=C([C@H](Cc1ccccc1)C[C@H](O)CNS(=O)(=O)c1ccc([N+](=O)[O-])cc1)N1CCC(CO)CC1` [Compound B19], on VIPR2 [1], the inhibition at 0.5 µM is 2.1%, the inhibition at 1 µM amounted to 4.4% and the inhibition at 5 µM amounted to 6.2%. At VIPR2 [2], the “% Activity” value was 0.85%. In addition, at VIPR2 [3], the inhibition at 0.5 µM was -8.4%, the inhibition at 1 µM was -17.8% and the inhibition at 5 µM was -4.5%.

As to `CNC(=O)[C@H](Cc1ccccc1)C[C@H](O)CNS(=O)(=O)c1ccc([N+](=O)[O-])cc1` [Compound B20], on VIPR2 [1], the inhibition at 0.5 µM is 7%, the inhibition at 1 µM is 8.3% and the inhibition at 5 µM was found to be 9.3%. Also, the “% Activity” value at VIPR2 [2] is 6.25%. At VIPR2 [3], the inhibition at 0.5 µM came out at 6.9%, the inhibition at 1 µM amounted to 4% and the inhibition at 5 µM was 3.2%.

For `C#CCNC(=O)[C@H](Cc1ccccc1)C[C@H](O)CNS(=O)(=O)c1ccc([N+](=O)[O-])cc1` [Compound B21A], on VIPR2 [1], the inhibition at 0.5 µM was found to be 5.4%, the inhibition at 1 µM came out at 7.8% and the inhibition at 5 µM was 7.3%. Further, the “% Activity” value at VIPR2 [2] is 3.55%. Besides, on VIPR2 [3], the inhibition at 0.5 µM came out at 9.4%, the inhibition at 1 µM was 7.2% and the inhibition at 5 µM is -0.2%.

Consider `C#CCNC(=O)[C@@H](Cc1ccccc1)C[C@H](O)CNS(=O)(=O)c1ccc([N+](=O)[O-])cc1` [Compound B21B], for which, at VIPR2 [1], the inhibition at 0.5 µM worked out at 3.1%, the inhibition at 1 µM came out at 7.3% and the inhibition at 5 µM came out at 13.5%. Besides, at VIPR2 [2], the “% Activity” value came to 10.25%. Besides, at VIPR2 [3], the inhibition at 0.5 µM was 3.3%, the inhibition at 1 µM came out at 3.4% and the inhibition at 5 µM came out at 7%.
